The text below walks through data of patent US11135340B2, “Compositions and methods for preparation of composite polymer coatings on medical implants, and their use for co-delivery of multiple antimicrobial agents” (THE JOHNS HOPKINS UNIVERSITY, priority 2016, dated 2021).

Where two headings read alike, the source gives them in different places.

One data set has as its system XEN36. The experiment in a line: MIC of XEN36 for each antibiotic. The data set is classed as cell-based, Staphylococcus aureus. Particulars: S. aureus XEN36.
Data set [1] is described as follows: In vitro release of antibiotics from composite coatings on titanium K-wire implants. The data set is classed as physicochemical. The following applies: for release kinetics after storage: coated pins stored 6 weeks room temperature, 6 weeks −20° C. or 8 months frozen, vs fresh; for Day 1 release of Gentamicin: of total loading. As to the method: The release rate of the polymer composite film was measured by HPLC. Drug release studies were conducted using coated pins created with the same loading parameters as those used for later in vivo testing (10% (w/w) drug combinations) electrospun for 60 seconds at injection rates of 0.5 mL/h from each needle. Release rate of antibiotics from the composite polymer coating was characterized by placing coated pins in 200 μL pH 7.4 PBS buffer and incubating at 37° C. in an aluminum film-covered incubator to prevent possible light-induced drug degradation. Release media was changed at fixed time points over a period of two weeks and stored in a −20° C. freezer until analysis. Drug concentrations in release media for each day were determined via reverse-phase HPLC using a C-18 column in an Alliance HPLC system and Waters 2996 PDA detector. The mobile phase was a mixture of acetonitrile and water both mixed with 0.1% TFA acid, which was run at a gradient from (15%/85%) to (40%/60%) for a total runtime of 15 minutes per sample for the elution of Van/Rif and Lin/Rif drug loading groups. Elution of the Dap/Rif loading group was conducted using a mobile phase of (49%/51%) of acetonitrile and water both mixed with 0.1% TFA acid for a total run time of 11 minutes per sample. Concentrations of the drugs were quantified using wavelengths of 343 nm for Rif, 254 nm for Lin, 280 nm for Van and 223 nm for Dap using prepared standard curves for all three drugs. […] Quantification was performed through the derivatization of Gentamicin with ninhydrin at 95° C. for 15 minutes and detection with a Biotek Synergy2 plate reader.
Drug release studies were conducted using coated pins created with the same loading parameters as detailed above. Release kinetics of antibiotics from the composite coating were characterized by placing coated pins in 200 μL of phosphate buffer saline (PBS, pH 7.4) at 37° C. Release media was changed daily over a period of two weeks and stored at −20° C. until analysis. Drug concentrations in release media were measured on days 1, 2, 3, 5, 7, 10 and 14 using a Waters Alliance 2690 HPLC system (Waters Corporation, Milford, Mass.) equipped with an Accucore RP-MS C18 column (100 mm×2.1 mm; Thermo Fisher Scientific) and a Waters 2996 PDA detector. The elution was carried out with a mobile phase of water and acetonitrile both mixed with 0.1% TFA at a flow rate of 1 mL/min at ambient temperature using a linear gradient elution program of 85% water to […] in 15 minutes. Concentrations of the drugs were quantified using wavelengths for Van (280 nm), Lin (254 nm), Dap (224 nm) and Rif (263 nm).

For the next data set, the system named is S. aureus. Put plainly: In vitro zone of inhibition assay of coated K-wires. Format: cell-based, Staphylococcus aureus. The following applies: any of the storage conditions vs freshly prepared coatings. An excerpt: A zone of inhibition assay was used as an additional assay to evaluate the in vitro release of antibiotic(s) from the composite coating. Tryptic soy agar bacterial plates were inoculated with S. aureus bacteria cells to yield a bacterial lawn after overnight culture. After bacterial inoculation and before culturing the plates, two identical titanium K-wires loaded with either 10 w/w % Lin, 10 w/w % Van, or 10 w/w % Dap alone, or in combination with Rif were placed in two separate areas on the plate. After culturing the plates at 37° C. for 24 hours, the antimicrobial activity of the eluded antibiotic(s) into the agar was measured as a zone of inhibition (diameter [mm]) of the bacterial growth around the K-wire.
Long-term efficacy of the antimicrobial activity was tested by storing electrospun pins at room temperature for 6 weeks, −20° C. for 6 weeks, and −80° C. for 8 months. Coated pins were protected from light during storage. These pins were then used in the same zone of inhibition assay as described hereinabove. These antimicrobial results were further confirmed with a two-week in vitro release study to determine release kinetics after storage.
Tryptic soy agar (TSA) bacterial plates were inoculated with S. aureus to yield a bacterial lawn after overnight culture. Before culturing the plates, two titanium K-wires each loaded with the same combination of antibiotics from each set were placed in two separate areas on the plate. After culturing at 37° C. for 24 hours, the zone of inhibition (ZOI) (diameter/mm) of bacterial growth were measured.

Data set [2] in a line: In vivo release kinetics of ICG from PCL coating by fluorescence imaging. On the set-up: species or system mice. The following applies: ICG loaded PCL coating on K-wire in mouse femur. The text has this: FIG. 9A and FIG. 9B show in vivo release kinetics as measured by PCL coatings impregnated with a near-infrared (NIR) fluorescent dye Indocyanine green (ICG) as a surrogate for the antibiotic loaded coatings.
The near-infrared (NIR) fluorescence imaging dye indocyanine green (ICG) was used as a surrogate model for drug loading and release in an established mouse model (described in Example 4) to monitor the in vivo release kinetics from PCL coating (FIG. 9A and FIG. 9B). ICG loaded PCL was coated onto titanium K-wire (described in Example 1). The implants were surgically placed in a retrograde fashion with 1 mm protruding into the joint space of mice. The release of ICG was measured by its fluorescence intensity at different time points.

Data set [3] concerns S. aureus bioluminescent strain Xen36. The experiment in a line: Mouse model of prosthetic joint infection: in vivo bioluminescence imaging and CFU. Details: species or system mice. Particulars: intravenous prophylaxis 110 mg/kg at −1 and 16 hours.
The mark [4] stands for this setting: Staphylococcus aureus, read-out: MIC.

`CCCCCCCCCC(=O)N[C@@H](Cc1c[nH]c2ccccc12)C(=O)N[C@H](CC(N)=O)C(=O)N[C@@H](CC(=O)O)C(=O)N[C@@H]1C(=O)NCC(=O)N[C@@H](CCCN)C(=O)N[C@@H](CC(=O)O)C(=O)N[C@H](C)C(=O)N[C@@H](CC(=O)O)C(=O)NCC(=O)N[C@H](CO)C(=O)N[C@@H]([C@H](C)CC(=O)O)C(=O)N[C@@H](CC(=O)c2ccccc2N)C(=O)O[C@@H]1C` [Dap, daptomycin]: the MIC – broadly, the smallest concentration in the dilution series that meets the test's criterion for growth inhibition – in the data set on XEN36 (setting [4]) was 0.25 µg/mL. In addition, in data set [1], the “release kinetics after storage” value is given as “no difference in the release kinetics”. Also, the “antimicrobial activity (zone of inhibition) after storage” value in the data set with S. aureus was “no significant loss of antimicrobial activity”.

With `CC1(C)C(/C=C/C=C/C=C/C=C2\N(CCCCS(=O)(=O)O)c3ccc4ccccc4c3C2(C)C)=[N+](CCCCS(=O)(=O)[O-])c2ccc3ccccc3c21` [ICG, indocyanine green], in data set [2], the “duration of ICG release” value is given as “over two weeks” and the “peak dissolution of ICG” value is 1 days.

In the case of `CC(=O)NC[C@H]1CN(c2ccc(N3CCOCC3)c(F)c2)C(=O)O1` [Lin, linezolid], the minimum inhibitory concentration (MIC) in the data set on XEN36 (setting [4]) was found to be 2 µg/mL. Also, the “release kinetics after storage” value in data set [1] is “no difference in the release kinetics”. Also, the “antimicrobial activity (zone of inhibition) after storage” value in the data set with S. aureus was “no significant loss of antimicrobial activity”.

In the case of `CO[C@H]1/C=C/O[C@@]2(C)Oc3c(C)c(O)c4c(O)c(c(/C=N/N5CCN(C)CC5)c(O)c4c3C2=O)NC(=O)/C(C)=C\C=C\[C@H](C)[C@H](O)[C@@H](C)[C@@H](O)[C@@H](C)[C@H](OC(C)=O)[C@@H]1C` [Rif, Rifampin], in the data set with XEN36 (setting [4]), the minimum inhibitory concentration (MIC) worked out at 0.5 µg/mL. The “release of Rif out of the composite film coating after storage (reduced or not)” value in data set [1] (pins stored at −20° C.) was “not when the pins were stored at −20 °C”. Further, the “release of Rif out of the composite film coating after storage” value in data set [1] (storage at room temperature for six weeks) is “reduced”. Also, in data set [1] (tuned by PCL molecular weight or PCL layer thickness), the “Rif remains above the MIC” value is listed as 2 to 5 days. Moreover, in the data set on S. aureus, the “antimicrobial activity (zone of inhibition) after storage” value is “no significant loss of antimicrobial activity”.

As for `CN[C@H](CC(C)C)C(=O)N[C@H]1C(=O)N[C@@H](CC(N)=O)C(=O)N[C@H]2C(=O)N[C@H]3C(=O)N[C@H](C(=O)N[C@H](C(=O)O)c4cc(O)cc(O)c4-c4cc3ccc4O)[C@H](O)c3ccc(c(Cl)c3)Oc3cc2cc(c3O[C@@H]2O[C@H](CO)[C@@H](O)[C@H](O)[C@H]2O[C@H]2C[C@](C)(N)[C@H](O)[C@H](C)O2)Oc2ccc(cc2Cl)[C@H]1O` [Van, vancomycin], in the data set on XEN36 (setting [4]), the MIC turned out to be 0.5 µg/mL. For the same compound, the “release kinetics after storage” value in data set [1] is listed as “no difference in the release kinetics”. In addition, the “antimicrobial activity (zone of inhibition) after storage” value in the data set with S. aureus is listed as “no significant loss of antimicrobial activity”. In data set [3], the BLI signals result was “decreased BLI signals”; the “clearance of infection (CFU from bone/joint tissue and implants)” value is “the infection was not cleared”.

Take Gentamicin: the minimum inhibitory concentration (MIC) result in the data set with XEN36 is “roughly 10 μg/mL”. In addition, the Gentamicin release profile entry in data set [1] (50:50 PLGA) is recorded as “sustained release”; in data set [1] (75:25 PLGA), “only a burst release”. Further, in data set [1] (controlled by polymer choice (PLA:PGA ratio of PLGA)), the “release of Gentamicin above the MIC” value is 2 to 14 days. Further, the figures for the “Day 1 release of Gentamicin” value in data set [1] (PLGA nanofibers alone) and in data set [1] (PLGA nanofibers embedded in PCL film layer) were 80% and “less than 45%”, respectively. In data set [1] (release from PLGA nanofibers of composite coating, FIG. 11A), the “Gentamicin MIC concentration sustained” value is given as “up to 14 days”.
